# Experimental data published in patent publication US11248229B2, “Inhibition of KMT2D for the treatment of cancer” (MEMORIAL SLOAN-KETTERING CANCER CENTER, priority 2016, dated 2022).
# Columns and labels:
# T47D cells = test: ER and FOXA1 ChIP-seq upon BYL719 treatment; format: cell-based, human
# Procedure: Cells were crosslinked with 1% paraformaldehyde added directly to the culture medium to a final concentration of 1% and incubated at room temperature for 15 minutes. The crosslinked cells were quenched with ice-cold glycine for 5 minutes, washed with PBS and collected. The cells were then lysed with SDS lysis buffer (10 ml of 1% SDS, 10 mM EDTA, 50 mM Tris-HCl, pH 8.1) containing protease and phosphatase inhibitors for 15 minutes prior to sonication. Cells were sonicated in 10-s pulses for a total of 10 min. […]
# Paired ends 36 bp sequencing was performed at the Genomics Core of Memorial Sloan Kettering Cancer Center using HiSeq (Illumina). Reads were first processed with Trimmomatic to remove the adaptor sequences and bases with quality scores below 20 and reads with less than 30 remaining bases were discarded^34. Trimmed reads were then aligned to hg19 human genome with the bowtie aligner^35. […] To find a set of peaks that are reproducible across the two biological replicates of a given cell condition, the per-replicate P-value of each peak was calculated using only the read count at the peak from the individual replicate and estimated the irreproducible discovery rate (IDR)^37 from the two sets of P-values that the replicates produced. […]
# Differentially accessible peaks from combined atlas were identified with […] by counting all read ends overlapping peaks in each condition. […]
# [1] = test system: enhancers or promoters of canonical ER target genes in T47D and MCF7 cells; test: ChIP-qPCR of ER, FOXA1, PBX1 and H3K4me1/2 occupancy at ER target genes; format: cell-based, human; conditions: DMSO or BYL719 for 24 h
# Procedure: (§1) Cells were crosslinked with 1% paraformaldehyde added directly to the culture medium to a final concentration of 1% and incubated at room temperature for 15 minutes. The crosslinked cells were quenched with ice-cold glycine for 5 minutes, washed with PBS and collected. The cells were then lysed with SDS lysis buffer (10 ml of 1% SDS, 10 mM EDTA, 50 mM Tris-HCl, pH 8.1) containing protease and phosphatase inhibitors for 15 minutes prior to sonication. Cells were sonicated in 10-s pulses for a total of 10 min. The sheared chromatin was diluted with ChIP Dilution buffer (0.01% SDS, 1.1% Triton X-100, 1.2 mM EDTA, 16.7 mM Tris-HCl, pH 8.1, 167 mM NaCl) and incubated overnight with Protein G Dynabeads (Thermo Fisher Scientific), which were pre-incubated with specific antibodies. ChIP antibodies to the following proteins were used: FOXA1 (ab5089) Abcam, PBX1 (H00005087-MO1) from Abnova, ER alpha (sc-543) from Santa Cruz and rabbit KMT2D homemade antibody which was generated by Eurogentec (third bleed) and affinity purified against GRARLKSTASSIC peptide (SEQ ID NO: 36). […]
# [2] = test system: breast tumor samples from patients; test: ATAC-seq of paired breast tumor biopsies from patients treated with BYL719; format: in vivo, human; conditions: paired tumor biopsies prior to therapy and on-therapy
# Source text: Starting from fastq files containing ATAC-seq paired-end reads, sequencing adaptors were removed using Trimmomatic^34. Trimmed reads were mapped to the hg19 human genome using Bowtie2^35 allowing at most 1 seed mismatch and keeping only uniquely aligned reads. Duplicates were removed using Picard (http://picard.sourceforge.net). For peak-calling the read start sites were adjusted (reads aligning to the +/−strand were offset by +4 bp/−5 bp, respectively) to represent the center of the transposon binding-event, as described in Buenrostro et al.^21 For each samples, ATAC-seq was run on two biological replicates. Peak calling was performed on each condition individually by pooling reads from biological replicates and using MACS2^36 with a permissive P-value threshold (−p 1e−2). To find a set of peaks that are reproducible across the two biological replicates of a given cell condition, we calculated the per-replicate P-value of each peak using only the read count at the peak from the individual replicate and estimated the irreproducible discovery rate (IDR)^37 from the two sets of P-values that the replicates produced. […] Differentially accessible peaks from this atlas were identified with edgeR^38 by counting all read ends overlapping peaks in each condition. edgeR was run with default settings, a fold-change threshold of 2 and FDR <0.01. […]
# KMT2D = test: ChIP-qPCR time course for KMT2D, H3K4me1 and H3K4me2 upon BYL719; format: cell-based, human; conditions: BYL719 (1 μM) for 2, 4, 8, 12 and 24 h
# Procedure: as §1
# T47D and MCF7 cells = test: MTT cell viability assay; format: cell-based, human; conditions: BYL719 for 5 days
# Source text: When indicated, MCF7 or T47D cells were transduced with lentiviruses expressing empty vector (pLKO. 1) or an shRNA against KMT2D (pLKO. 1) (disclosed in Table 1) or shRNA against FOXA1, shFOXA1 #1 TRCN0000014882; shFOXA1 #2: TRCN0000014880; or shRNA against PBX1, shPBX1 #1: TRCN0000020390; shPBX1 #2: TRCN0000020391). When indicated, MCF7 cells were transduced with pTRIPZ vectors (TRE-RFP-miR30/shRNA-UBC-IRES-PURO) targeting PBX1 or FOXA1 knockdown upon doxycycline administration. When indicated, MCF7 cells were transduced with LT3REPIR (pRRL) vector (T3G-dsRED-mirE/shRNA-PGK-PURO-IRES-rtTA3) targeting KMT2D knockdown upon doxycycline administration. For lentiviral production, 293T cells were transfected with pCMV-VSVG, pCMV-dR8.2 and the plasmid of interest using lipofectamine 3000 according to the manufacture's protocol.
# BYL719 was obtained from the Stand Up to Cancer (SU2C) pharmacy. BYL719 was dissolved in DMSO for in vitro experiments. The MTT assay was used to measure cell viability. Briefly, 5000 cells were seeded in 96 well plates, treated with BYL719 for 5 days and assayed using 0.25% MTT (Sigma) and 50 mM sodium succinate (Sigma) for 3 hours. After the formazan crystals were dissolved with DMSO, the absorbance was measured at 570 nm of wavelength. Doxycycline was purchased from Sigma.
# MCF7 xenografts = test: MCF7 inducible shRNA in vivo xenograft; parameters: species or system athymic Foxn1nu mice
# Procedure: Animals were maintained based on the institutional guidelines of Memorial Sloan Kettering Cancer Center (Protocol number 12-10-019). 6×10^6 MCF7 cells in 1:1 DF12 media/Matrigel (Corning) were injected subcutaneously into four to six week old female athymic Foxn1^nu mice. Mice were randomized when tumors reached ˜[…] of volume. 5 mice, 10 tumors were then treated with BYL719 (25 mg×kg^−1 in 0.5%) in carboxymethylcellulose (Sigma) daily for the indicated times. Tumors were collected at the end of the experiments, two to four hours after the last treatment.
# Two way t-tests were performed using GraphPad Prism (GraphPad Software), P-values are indicated in the respective graphs. All cellular experiments were repeated at least three times. The in vivo experiments contained 10 tumors for each treatment arm and the sample size was chosen to reflect a difference in means of 20% with a power of 90%. Before the commencement of the in vivo experiments, animals were measured and randomized in groups with similar average tumor volume. Bioinformatics statistics are indicated in the respective method descriptions.
# [3] = test system: ER-dependent genes in T47D and MCF7 cells; test: RT-qPCR of ER-dependent genes in hormone depleted cells; format: cell-based, human; conditions: cells treated with BYL719 (1 μM) for 24 h
# Source text: All cell lines were obtained from ATCC and used at low passages. T47D cells were maintained in RPMI 1640 with 10% FBS, 1% L-glutamine and 1% penicillin-streptomycin. MCF7 cells were maintained in DF-12 DMEM Dulbecco medium with 10% FBS, 1% L-glutamine and 1% penicillin-streptomycin. HEK 293T cells were maintained in DMEM Dulbecco medium supplemented with 10% FBS, 1% L-glutamine and 1% penicillin-streptomycin. For RNA analysis, MCF7 cells or T47D cells underwent hormonal starvation. MCF7 and T47D were cultured for 3 days in phenol-red-free DF12 DMEM and phenol-red-free RPMI respectively, media was supplemented with 5% charcoal/dextran-treated FCS. Cells were induced with E2 (100 nM), BYL719 (1 μM) or vehicle (DMSO) for 24 hours.
# Total RNA was extracted from patient biopsies tissue using TRIzol (Life Technologies) and treated with DNAse before cDNA synthesis. cDNA synthesis was performed using the Bio-Rad cDNA synthesis kit according to the manufacturer's instructions. RNA was isolated from cells using the QIAGEN RNeasy kit. The qPCR SYBR green mix (Applied Biosystems) was used to amplify specific cDNA fragments with the oligonucleotides listed in Extended figure using the ViiA™ Real Time PCR system (Applied Biosystems). The data were analyzed by the change-in-threshold (2^−ΔΔCT) method using Actin or GAPDH as a housekeeping genes to obtain relative RNA expression. […]
smiles,measurement,setting,value
Cc1nc(NC(=O)N2CCC[C@H]2C(N)=O)sc1-c1ccnc(C(C)(C)C(F)(F)F)c1 [BYL719],co-occupancy of ER and FOXA1 at specific target loci,T47D cells; BYL719 (1 μM) for 24 h,increased co-occupancy of ER and FOXA1
same,ER binding events (ER ChIP-seq),T47D cells; DMSO or BYL719 for 24 h,induced differential ER binding
same,"binding of ER, FOXA1 and PBX1 to enhancers or promoters of canonical ER target genes",[1],significantly enhanced
same,chromatin accessibility in regions responsive to PI3K inhibition,[2],increase in chromatin accessibility
same,KMT2D recruitment at regulatory regions,KMT2D,peaked at early hours
same,abundance of H3K4me1/2 occupying regulatory regions,KMT2D,elevated at the same time points
same,"cell viability, KMT2D knockdown combined with BYL719",T47D and MCF7 cells; ER-positive cell lines,greater effect
same,viability of cells treated with BYL719 upon FOXA1 and PBX1 silencing,T47D and MCF7 cells; constitutive or inducible shRNAs,decrease the viability
same,antitumor effect of silencing KMT2D in the presence of BYL719,"MCF7 xenografts; MCF7 inducible shKMT2D xenografts, BYL719 daily 25 mg/kg",enhanced
same,anti-tumor activity of BYL719 with FOXA1 silencing,"MCF7 xenografts; MCF7 xenografts, inducible shFOXA1, BYL719 daily 25 mg/kg",markedly increased the anti-tumor activity
same,expression of ER-dependent genes in the absence of KMT2D,[3],decrease of expression
